Data taken from patent US9944597B2, “Polysubstituted pyrroles having microtubule-disrupting, cytotoxic and antitumor activities and methods of use thereof” (THE BOARD OF REGENTS OF THE UNIVERSITY OF TEXAS SYSTEM, priority 2013, dated 2018).
Like-named read-outs stand apart in the source and are kept apart here.

How the values were obtained:
[1] = system: MDA-MB-435 (human melanoma cancer cells); assay: Antiproliferative SRB assay, MDA-MB-435; format: cell-based; settings: read-out: MDA-MB-435 Anti-Proliferative Activity, IC50
Method: (§1) Cell Culture. Various representative cancer and other cell lines were sourced and grown as described previously [Mooberry, S. L., et al., Mol. Pharm. 72, 132-140 (2007)]. MDA-MB-435 (human melanoma cancer cells), and MDA-MB-231 (human breast cancer cells) were grown in IMEM Richter's Medium (Life Technologies, Grand Island, N.Y.) with 10% FBS (Hyclone, Logan, Utah) and 25 μg/mL gentamicin sulfate (Life Technologies). A-10 (embryonic rat vascular smooth muscle cells) and HeLa (human cervical cancer cells), SK-OV-3 (human ovarian cancer cells) and SK-OV-3-MDR-1-M6/6 (a clone of the SK-OV-3 that was generated from SK-OV-3 cells by adenovirus-mediated expression of MDR1) were grown in Basal Medium Eagle (BME, Sigma-Aldrich, St. Louis, Mo.) containing Earle's salts, 50 μg/ml gentamicin sulfate, and 10% FBS. HeLa cells (a single-cell clone derived from transduction of HeLa cells with wild-type (WT) βIII-tubulin) were grown in Dulbecco's Modified Eagle's Medium (DMEM, Life Technologies) containing 50 μg/mL gentamicin sulfate and 10% FBS.
(§2) Antiproliferative Effects. The pyrrole compounds were evaluated for their antiproliferative effects in a panel of cancer cell lines. Cells were plated into 96-well plates at predetermined densities and allowed to attach and proliferate for 24 hr, and then the compounds were added. After a 48 hr exposure to the compounds, the cells were fixed with trichloroacetic acid and cellular protein was determined using the sulforhodamine B (SRB) assay (Skehan et al., J. Natl. Cancer Inst. 82, 1107-12, (1990); Boyd and Paull Drug Devel. Res. 34, 91-109, (1995)). Concentration response curves were constructed, and the IC50 (the concentration required to inhibit proliferation by 50%) values were determined from the linear portions of the log concentration-response curves as described previously [Tinley, T. L., et al., Cancer Res. 63, 3211-3220, (2003)] as shown in Table 48.

[2] = system: HeLa (human cervical cancer cells); assay: Antiproliferative SRB assay, HeLa; format: cell-based
Method: as §1, §2
(§3) First, drug resistance mediated by the expression of βIII tubulin was evaluated in an isogenic HeLa cell line pair. Expression of the βIII tubulin isotype is associated with clinical drug resistance to the taxanes in ovarian cancer, non small-cell lung cancer and breast cancer [Galmarini, C. M., et al., Clin. Cancer Res. 14, 4511-4516 (2008)]. Secondly, drug resistance mediated by the expression of the drug efflux pump protein, Pgp, was evaluated in the isogenic SK-OV-3 cell line pair. The expression of Pgp can lead to lower intracellular drug concentrations and diminished cytotoxic effects both in vitro and in vivo. All tubulin-binding anticancer drugs used currently in the clinic, except cabazitaxel, are substrates for Pgp, thus limiting their utility in drug resistant tumors [Penson, R. T., et al., Gynecol. Oncol. 93, 98-106 (2004)]. Differences in sensitivity between the parent and transformed cell line, indicative of resistance, was determined by calculating relative resistance (Rr) values in the two pairs of isogenic cell lines (dividing the IC50 of the expressing cell line by the IC50 of the parental cell line).

[3] = system: SK-OV-3 (human ovarian cancer cells); assay: Antiproliferative SRB assay, SK-OV-3; format: cell-based
Method: as §1, §2
as §3, with “The expression of Pgp can lead to lower intracellular drug concentrations and diminished cytotoxic effects both in vitro and in vivo.” left out

HeLa WT-β-III cells = assay: Antiproliferative SRB assay, βIII-tubulin expressing HeLa; format: cell-based, human; settings: for IC50: Table 49, βIII tubulin expressing line, 48 hr, SRB assay; for Rr (β-III): relative resistance: IC50 of expressing line divided by IC50 of parental HeLa
Method: as §1, §2, §3

SK-OV-3-MDR-1-6/6 cells = assay: Antiproliferative SRB assay, Pgp expressing SK-OV-3; format: cell-based, human; settings: for IC50: Table 49, Pgp expressing line, 48 hr, SRB assay; for Rr (Pgp): relative resistance: IC50 of expressing line divided by IC50 of parental SK-OV-3
Method: as §1, §2
as §3, with “The expression of Pgp can lead to lower intracellular drug concentrations and diminished cytotoxic effects both in vitro and in vivo.” left out

A-10 cells = assay: Cellular microtubule loss by indirect immunofluorescence; format: cell-based, rat; settings: read-out: EC50 Values (nM) for Microtubule Loss in A-10 cells
Method: The effects of representative compounds on cellular microtubules were evaluated in A-10 (embryonic rat vascular smooth muscle cell line) cells using indirect immunofluorescence techniques as previously described (Tinley et al., Cancer Res. 63, 3211-20 (2003)). Cells were visualized using a Nikon Eclipse 80i fluorescence microscope and NIS Elements software. Changes in both interphase and mitotic microtubules were noted and photographed. The EC50 values, the concentration that causes approximately 50% loss of interphase microtubules was determined by evaluating a range of concentrations of each compound and the percent cellular microtubule depolymerization that was observed visually at each concentration was noted.
Microtubules were visualized by indirect immunofluorescence using a β-tubulin antibody, and the DNA was visualized with DAPI. A representative concentration response curve for NT-7-16 is also shown in FIG. 1 that was used to calculate its corresponding EC50 for microtubule loss. Concentration response curves for microtubule loss were plotted using data from at least three experiments for each compound and the corresponding EC50 values for microtubule loss are presented in Table 50.

[4] = target: T1, purified porcine brain tubulin (Sus scrofa, UniProt P02554); assay: Inhibition of polymerization of purified tubulin (absorbance at 340 nm); format: biochemical
T1 construct: of Purified Porcine Brain Tubulin; from tissue; host or cells: porcine brain
T1 sequence (P02554 whole entry): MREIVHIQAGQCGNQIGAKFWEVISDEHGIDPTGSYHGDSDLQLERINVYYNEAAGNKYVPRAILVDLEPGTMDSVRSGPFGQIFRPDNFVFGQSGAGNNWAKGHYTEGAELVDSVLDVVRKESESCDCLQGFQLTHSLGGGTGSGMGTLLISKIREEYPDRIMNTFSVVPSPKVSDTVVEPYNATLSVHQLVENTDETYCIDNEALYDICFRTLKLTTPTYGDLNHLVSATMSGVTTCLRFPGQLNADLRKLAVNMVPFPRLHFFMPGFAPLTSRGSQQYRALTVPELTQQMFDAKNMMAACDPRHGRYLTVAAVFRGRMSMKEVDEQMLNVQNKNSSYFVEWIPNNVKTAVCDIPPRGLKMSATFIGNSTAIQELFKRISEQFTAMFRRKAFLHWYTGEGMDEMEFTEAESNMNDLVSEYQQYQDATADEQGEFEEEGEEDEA
T1 sequence (P02550 whole entry partner): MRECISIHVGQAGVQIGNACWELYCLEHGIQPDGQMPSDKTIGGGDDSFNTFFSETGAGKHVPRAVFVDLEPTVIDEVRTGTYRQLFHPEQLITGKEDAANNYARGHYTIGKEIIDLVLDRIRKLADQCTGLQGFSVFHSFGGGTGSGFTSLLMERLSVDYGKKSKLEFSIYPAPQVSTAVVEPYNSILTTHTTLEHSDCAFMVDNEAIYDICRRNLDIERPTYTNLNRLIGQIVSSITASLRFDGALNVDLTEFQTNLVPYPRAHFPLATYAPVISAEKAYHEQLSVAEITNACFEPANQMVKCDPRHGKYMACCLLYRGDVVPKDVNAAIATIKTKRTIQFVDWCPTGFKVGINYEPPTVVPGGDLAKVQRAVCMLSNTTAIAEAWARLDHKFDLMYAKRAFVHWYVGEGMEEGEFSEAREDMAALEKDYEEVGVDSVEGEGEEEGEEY

[5] = Homo sapiens, MDA-MB-435, Table 48, 48 hr exposure, SRB assay
[6] = Homo sapiens, MDA-MB-435, Table 52
[7] = Homo sapiens, HeLa, Table 48, 48 hr exposure, read-out: HeLa Anti-Proliferative Activity, IC50
[8] = Homo sapiens, HeLa, Table 49, parental line, 48 hr, read-out: HeLa IC50
[9] = Homo sapiens, SK-OV-3, Table 48, 48 hr exposure, read-out: SK-OV-3 Anti-Proliferative Activity, IC50
[10] = Homo sapiens, SK-OV-3, Table 49, parental line, 48 hr, read-out: SK-OV-3 IC50
[11] = Rattus norvegicus, A10, Table 50, concentration causing approximately 50% loss of interphase microtubules

SMILES | Rr (β-III) (HeLa WT-β-III cells) | Rr (Pgp) (SK-OV-3-MDR-1-6/6 cells) | IC50 [1, 5] [nM] | IC50 [1, 6] [nM] | IC50 [2, 7] [nM] | IC50 [2, 8] [nM] | IC50 [3, 9] [nM] | IC50 [3, 10] [nM] | IC50 (HeLa WT-β-III cells; Homo sapiens, HeLa) [nM] | IC50 (SK-OV-3-MDR-1-6/6 cells; Homo sapiens, SK-OV-3) [nM] | EC50 (A-10 cells; [11]) [nM] | inhibition at 2 µM ([4]; compound at 2 μM) [%] | melting point [°C] | further results
CCOC(=O)c1[nH]c(C=NO)c(-c2ccc(OC)c(OC)c2OC)c1Br (mixture of isomers) [Example 10a, Cis/Trans-3-Bromo-4-(2,3,4-trimethoxyphenyl)-5-oximino-1H-pyrrole 2-carboxylic acid ethyl ester] | 0.9 | 1.2 | – | – | – | – | – | – | – | – | – | – | – | IC50 ([1]; Table 48, 48 hr exposure, SRB assay): 2.7 ± 0.2 nM; IC50 ([1]; Table 52): 2.7 ± 0.2 nM; IC50 ([2]; Table 48, 48 hr exposure, read-out: HeLa Anti-Proliferative Activity, IC50): 5 ± 0.3 nM; IC50 ([2]; Table 49, parental line, 48 hr, read-out: HeLa IC50): 5 ± 0.3 nM; IC50 ([3]; Table 48, 48 hr exposure, read-out: SK-OV-3 Anti-Proliferative Activity, IC50): 5.3 ± 0.2 nM; IC50 ([3]; Table 49, parental line, 48 hr, read-out: SK-OV-3 IC50): 5.3 ± 0.2 nM; IC50 (HeLa WT-β-III cells): 4.1 ± 1 nM; IC50 (SK-OV-3-MDR-1-6/6 cells): 6.6 ± 1.2 nM; EC50 (A-10 cells; Table 50, concentration causing approximately 50% loss of interphase microtubules): 9.8 nM; EC50 (A-10 cells; Table 52): 8.9 nM; % Inhibition of Tubulin Polymerization ([4]; compound at 2 μM): 75%
CCOC(=O)c1[nH]c(C=NOC)c(-c2ccc(OC)c(OC)c2OC)c1Br (mixture of isomers) [Example 12, Cis/Trans-3-Bromo-4-(2,3,4-trimethoxyphenyl)-5-(O-methyl-oximino)-1H-pyrrole-2-carboxylic acid ethyl ester] | 1.1 | 1.3 | 7.6 ± 0.5 | 7.6 ± 0.5 | 11.9 ± 1.3 | 11.9 ± 1.3 | 13.8 ± 0.9 | 13.8 ± 0.9 | 12.5 ± 0.2 | 17.5 ± 1.2 | 22 | 99 | 125 to 128 | –
CCOC(=O)c1[nH]c(C=O)c(-c2ccc(OC)c(OC)c2OC)c1Br [Example 2, 3-Bromo-4-(2,3,4-trimethoxyphenyl)-5-formyl-1H-pyrrole 2-carboxylic acid ethyl ester] | 3.3 | 1.1 | 57 ± 5 | 57 ± 5 | 31.7 ± 4.8 | 31.7 ± 4.8 | 72 ± 9.1 | 72 ± 9.1 | 104 ± 6.5 | 82.2 ± 9.4 | 66 | 68 | 158 to 160 | –
CCOC(=O)c1[nH]c(C(F)F)c(-c2ccc(OC)c(OC)c2OC)c1Br [Example 6, 3-Bromo-4-(2,3,4-trimethoxyphenyl)-5-(difluoromethinyl)-1H-pyrrole 2-carboxylic acid ethyl ester] | 1.3 | 0.8 | 113 ± 6 | 113 ± 6 | 142 ± 11 | 142 ± 11 | 227 ± 14 | 227 ± 14 | 184 ± 30.3 | 174 ± 12.5 | 315 | 55 | 149 to 151 | –
CCOC(=O)c1[nH]c(Br)c(-c2ccc(OC)c(OC)c2OC)c1Br [Example 22, 3,5-Dibromo-4-(2,3,4-trimethoxyphenyl)-1H-pyrrole-2-carboxylic acid ethyl ester] | 1.2 | 0.7 | 10.4 ± 0.5 | – | 12.9 ± 0.8 | 12.9 ± 0.8 | 15.2 ± 0.8 | 15.2 ± 0.8 | 15.7 ± 0.2 | 10.6 ± 0.3 | 34.5 | – | – | inhibition at 1 µM ([4]; compound at 1 μM): 53%
CCOC(=O)c1[nH]c(Cl)c(-c2ccc(OC)c(OC)c2OC)c1Cl [Example 23, 3,5-Dichloro-4-(2,3,4-Trimethoxyphenyl)-1H-pyrrole-2-carboxylic acid ethyl ester] | 1.0 | 1.1 | 116 ± 4.3 | – | 131 ± 8 | 131 ± 8 | 211 | 211 | 137 | 231 ± 118 | 1060 | – | 151 to 153 | –
